Values after ≈ are worked out from the molar mass of the structure shown. “Also recorded” adds a separate entry of the source. Ends that are not written are not given here.
Key:
Candida albicans 90028 = assay: microbe, parasite or virus in culture; type: cell-based; conditions: ATCC90028, ATCC 90028, peptides 0.5 to 256 μM, 100 μL, 96-well, no cells seen by optical microscopy, three biological repetitions with 2 technical replicates, mean ± SD, read-out: Minimum inhibitory concentration (μM ± SD) C. albicans
Procedure: (§1) Protocols M7-A10 [46], M27-A3 [47] and M38-A2 [48] from Clinical & Laboratory Standards Institute (CLSI) were used to test the susceptibility of bacteria, yeasts and filamentous fungi to the Hs IAPs. Briefly, Hs IAPs ranging from 0.5 to 256 μM were tested against microorganisms in a final volume of 100μL. Tests were performed in polystyrene flat-bottom 96 wells microplates and each test consisted of three biological repetitions with 2 technical replicates each. The minimum inhibitory concentration (MIC) was defined as the concentration that no cells/hyphae were detected when visualized by optical microscopy. ATCC reference strains: Candida albicans 90028, Staphylococcus aureus 25923, Pseudomonas aeruginosa 27853, Trichophyton rubrum 28189, Staphylococcus epidermidis 12228.

[1] = tested on: Staphylococcus epidermidis 12228; assay: microbe, parasite or virus in culture; type: cell-based; conditions: ATCC 12228, peptides 0.5 to 256 μM, 100 μL, 96-well, three biological repetitions with 2 technical replicates, mean ± SD
Procedure: as §1

[2] = tested on: Staphylococcus aureus 25923; assay: microbe, parasite or virus in culture; type: cell-based; conditions: ATCC 25923, peptides 0.5 to 256 μM, 100 μL, 96-well, three biological repetitions with 2 technical replicates, mean ± SD
Procedure: as §1

[3] = tested on: Pseudomonas aeruginosa 27853; assay: microbe, parasite or virus in culture; type: cell-based; conditions: ATCC27853, ATCC 27853, peptides 0.5 to 256 μM, 100 μL, 96-well, three biological repetitions with 2 technical replicates, mean ± SD, read-out: Minimum inhibitory concentration (μM ± SD) P. aeruginosa
Procedure: as §1

[4] = tested on: mouse BALB/cN macrophage (J774A.1) cell line; type: cell-based; conditions: for Viability of J774A.1 macrophages versus DMEM untreated control: 24 h exposure, peptide at 0.1, 1 and 10 μM, flow cytometry, 20,000 events/sample, p<0.05
Procedure: (§2) Fig 4 a. Cytotoxicity evaluation in the mouse BALB/cN macrophage (J774A.1) cell line after exposure for 24 h at 0.1, 1.0 and 10 μM concentrations. DMEM was used as a negative control. Cells were analyzed by flow cytometry (20,000 events/sample). b. Evaluation of the cell death mechanism mediated by Hs02 in J774A.1 cells after exposure for 24 h at 0.1, 1.0 and 10 μM concentrations using annexin-V FITC (apoptosis marker) and propidium iodide (PI, necrosis marker) staining. Cells were analyzed by flow cytometry (20,000 events/sample). The values are expressed as mean ± SEM. * p<0.05 and **** p<0.0001 versus DMEM untreated control group. # p<0.05 versus apoptosis staining for each respective group.
(§3) The cytotoxicity of Hs IAPs was performed using human red blood cells in strict accordance with relevant guidelines and regulations (Ethical committee–UnB # 1.939.989 as described elsewhere. Cytotoxic effect of IAPs was evaluated by MTT assay and flow cytometry analysis using murine peritoneal macrophages from C57BL/6 mice or a BALB/cN-derived macrophages (J774A.1) cell line. For cell viability assays using MTT, murine peritoneal macrophages from C57BL/6 mice were plated in triplicate wells in 96-well plates at a density of 1.0 × 10^5 cells per well and stimulated or not with different concentrations of Hs IAPs (0.1, 1 and 10 μM) and incubated for 24h. After that, 20μl of a solution of 3-(4,5-Dimethyl-thiazol-2-yl)-2,5-diphenyl-tetrazolium bromide (MTT, Sigma) was added to each well (5 mg/ml of MTT in phosphate buffered saline). The plates were incubated at 37°C for 3 hours and then processed as previously described. Cell death was analysed by annexin V-FITC/PI staining followed by flow cytometry analysis. Mouse BALB/cN macrophage (J774A.1) cell line was acquired from ATCC (number TIB-67) and cultured in Dulbecco’s Modified Eagle’s Medium (DMEM) (Life) supplemented with 10% heat inactivated foetal bovine serum (Life) and 1% antibiotic solution (100 IU/mL penicillin/100 μg/mL streptomycin, Life) at 37°C, 5% CO2, in a humidified atmosphere. […]

[5] = tested on: murine peritoneal macrophages from C57BL/6 mice; assay: MTT reduction assay in primary macrophages; type: cell-based, mouse; conditions: 24 h incubation, triplicate wells (S1 Fig)
Procedure: as §3

human red blood cells = type: cell-based
Procedure: The cytotoxicity of Hs IAPs was performed using human red blood cells in strict accordance with relevant guidelines and regulations (Ethical committee–UnB # 1.939.989 as described elsewhere. Cytotoxic effect of IAPs was evaluated by MTT assay and flow cytometry analysis using murine peritoneal macrophages from C57BL/6 mice or a BALB/cN-derived macrophages (J774A.1) cell line. For cell viability assays using MTT, murine peritoneal macrophages from C57BL/6 mice were plated in triplicate wells in 96-well plates at a density of 1.0 × 10^5 cells per well and stimulated or not with different concentrations of Hs IAPs (0.1, 1 and 10 μM) and incubated for 24h. After that, 20μl of a solution of 3-(4,5-Dimethyl-thiazol-2-yl)-2,5-diphenyl-tetrazolium bromide (MTT, Sigma) was added to each well (5 mg/ml of MTT in phosphate buffered saline). The plates were incubated at 37°C for 3 hours and then processed as previously described. Cell death was analysed by annexin V-FITC/PI staining followed by flow cytometry analysis. Mouse BALB/cN macrophage (J774A.1) cell line was acquired from ATCC (number TIB-67) and cultured in Dulbecco’s Modified Eagle’s Medium (DMEM) (Life) supplemented with 10% heat inactivated foetal bovine serum (Life) and 1% antibiotic solution (100 IU/mL penicillin/100 μg/mL streptomycin, Life) at 37°C, 5% CO2, in a humidified atmosphere. J774A.1 cells were seeded into 96-well culture plates in DMEM culture medium for 2 h at 37°C and 5% CO2 in a humid atmosphere at a density of 1.0 × 10^5 cells, and stimulated or not with different concentrations of Hs IAPs (0.1, 1 and 10 μM). The plates were incubated for 24 h, washed in PBS, and resuspended in 100 μL of binding buffer (10 mM HEPES/NaOH pH 7.4, 140 mM NaCl, ad 2.5 mM CaCl2). Cells were then treated with 2 μL of annexin-V FITC in Aqueous buffered solution containing BSA and ≤0.09% sodium azide (BD Pharmingen) and 2 μL of propidium iodide (PI, 50 μg/mL) for 15 min in the dark at room temperature. Next, 100 μL binding buffer was added and a total of 20,000 events were collected per sample in flow cytometer (BD LSRFortessa).

[6] = tested on: murine peritoneal macrophages from C57BL/6 mice; assay: LPS-induced TNF-α release by ELISA; type: cell-based, mouse; conditions: macrophages primed with 500 ng/mL LPS for 4 h, then peptide for 24 h, Hs02 at 0.1, 1 and 10 μM, DS01 at 1 and 10 μM
Procedure: Fig 5 TNF-α secretion and lipid droplet biogenesis evaluation. a. Murine peritoneal macrophages from C57BL/6 mice were pre-treated or not with LPS (500 ng/ml) for 4h and then stimulated or not with Hs IAPs (0.1, 1.0 and 10 μM), incubated for 24h and TNF-α levels measured by ELISA b. In parallel, murine peritoneal macrophages from C57BL/6 mice were pre-treated or not with LPS (500 ng/ml) for 4h and then stimulated or not with Hs IAPs (0.1 μM), incubated for 24h and lipid droplets were quantitated by flow cytometry (B). The values are expressed as mean ±SEM. * p<0.05 and **** p<0.0001 versus DMEM control group. […] The digits of 121, 119, 364 and 122 are best readings.
The modulation of pro-inflammatory cytokine TNF-α secretion induced by IAPs was evaluated by ELISA. […] Supernatant TNF-α concentration was detected by ELISA with a R&D Systems (USA) kit. […] Plates were read after adding the stop solution at 450nm using SpectraMax M3spectrophotometer (Molecular Devices).
Supplementary file pone.0220656.s004.tif: S3 Fig TNF-α release in murine macrophages. Murine peritoneal macrophages from C57BL/6 mice were pre-treated or not with LPS (500 ng/ml) for 4h and then stimulated or not with the AMP DS01 (10, and 1 μM), incubated for 24h and TNF-α levels measured by ELISA. The values are expressed as mean ±SEM. * p<0.05 and **** p<0.0001 versus DMEM control group. […]

[7] = tested on: mouse BALB/cN macrophage (J774A.1) cell line; assay: Annexin-V FITC / propidium iodide staining by flow cytometry; type: cell-based; conditions: 24 h exposure at 0.1, 1.0 and 10 μM; flow cytometry, 20,000 events/sample
Procedure: as §2
The cytotoxicity of Hs IAPs was performed using human red blood cells in strict accordance with relevant guidelines and regulations (Ethical committee–UnB # 1.939.989 as described elsewhere. Cytotoxic effect of IAPs was evaluated by MTT assay and flow cytometry analysis using murine peritoneal macrophages from C57BL/6 mice or a BALB/cN-derived macrophages (J774A.1) cell line. For cell viability assays using MTT, murine peritoneal macrophages from C57BL/6 mice were plated in triplicate wells in 96-well plates at a density of 1.0 × 10^5 cells per well and stimulated or not with different concentrations of Hs IAPs (0.1, 1 and 10 μM) and incubated for 24h. […]

Compound: C[C@@H]1[C@H](O)[C@@H](C)/C=C/C=C/C=C/C=C/C=C/C=C/C=C/[C@H](O[C@@H]2O[C@H](C)[C@@H](O)[C@H](N)[C@@H]2O)C[C@@H]2O[C@](O)(C[C@@H](O)C[C@@H](O)[C@H](O)CC[C@@H](O)C[C@@H](O)CC(=O)O[C@H]1C)C[C@H](O)[C@H]2C(=O)O [Amphotericin b]
- MIC (Candida albicans 90028): 0.27 µM (≈ 0.25 µg/mL)

Compound: CC1(C)S[C@@H]2[C@H](NC(=O)[C@H](N)c3ccccc3)C(=O)N2[C@H]1C(=O)O [Ampicilin]
- Minimum inhibitory concentration (μM ± SD) S. epidermidis [1]: 43.10 ± 0.0 µM (≈ 15.1 µg/mL)
- Minimum inhibitory concentration (μM ± SD) S. aureus [2]: 5.38 ± 0.0 µM (≈ 1.88 µg/mL)

Compound: OC(Cn1cncn1)(Cn1cncn1)c1ccc(F)cc1F [Fluconazol]
- MIC (Candida albicans 90028): 1.63 µM (≈ 0.499 µg/mL)

Compound: CNC(C)C1CCC(N)C(OC2C(N)CC(N)C(OC3OCC(C)(O)C(NC)C3O)C2O)O1 (centres unmarked) [Gentamicin]
- MIC ([1]; Staphylococcus epidermidis, ATCC12228, read-out: Minimum inhibitory concentration (μM ± SD) S. epidermidis): 0.26 µM (≈ 0.124 µg/mL)
- MIC [3]: 0.13 µM (≈ 0.0621 µg/mL)
- MIC ([2]; Staphylococcus aureus, ATCC25923, read-out: Minimum inhibitory concentration (μM ± SD) S. aureus): 0.26 µM (≈ 0.124 µg/mL)

Compound: OO [hydrogen peroxide (H2O2), hydrogen peroxide]
- Viability of J774A.1 macrophages versus DMEM untreated control [4]: decreased significantly (p<0.05) the cell viability

Compound: FLREFHKWIERVVGWLGKVF-NH2 [Hs03]
- Concentration that reduced the viability of peritoneal macrophages to 50% [5]: approximately 10 μM
- Hemolytic activity SC50 (human red blood cells): > 128 µM

Compound: GFKDLLKGAAKALVKTVLF-NH2 [Asc-8]
- Hemolytic activity SC50 (human red blood cells): 32 µM

Compound: GLWSTIKQKGKEAAIAAAKAAGQAALGAL-NH2 [DS01]
- Hemolytic activity SC50 (human red blood cells): > 128 µM
- Peptide concentration that inhibits LPS-induced release of TNF-α [6]: > 10 µM

Compound: KWAVRIIRKFIKGFIS-NH2 [Hs02]
- Apoptosis (annexin-V FITC) or necrosis (PI) in J774A.1 cells versus DMEM control [7]: did not present significant apoptosis or necrosis; also recorded: No significant apoptosis or necrosis
- Hemolytic activity SC50 (human red blood cells): > 128 µM
- Viability of J774A.1 macrophages versus DMEM untreated control [4]: did not cause significant (p<0.05) reduction in the viability
- Concentration tolerated by the J774A.1 macrophage cell line ([4]; flow cytometry, 24 h, 0.1, 1 and 10 μM tested): ≥ 10 µM

Compound: LFNNYITAALKLLEKLYKV-NH2 [Hs04]
- Concentration that reduced the viability of peritoneal macrophages to 50% [5]: approximately 10 μM
- Hemolytic activity SC50 (human red blood cells): 64 µM

Compound: LKMLGMLFHNIRNILKTV-NH2 [Hs01]
- Hemolytic activity SC50 (human red blood cells): > 128 µM
